Laboratory results reported in US11963960B2 (Flash Therapeutics, LLC, priority 2020, dated 2024).

Target: N-terminally GST-tagged HCK (75-526) (Homo sapiens (Human), UniProt P08631)
Assay: HCK Kinase Assay (ProFluor Src-Family Kinase Assay)
Type: biochemical
Settings: HCK inhibitory activity, 50 μM ATP; read-out: HCK Activity
Procedure, shortened: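 ProFluor Src-family format: after the kinase reaction, protease solution was added for 60 min at room temperature (22-25° C), then stabilizer.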

N-terminally GST-tagged HCK (75-526), sequence (P08631 75-526): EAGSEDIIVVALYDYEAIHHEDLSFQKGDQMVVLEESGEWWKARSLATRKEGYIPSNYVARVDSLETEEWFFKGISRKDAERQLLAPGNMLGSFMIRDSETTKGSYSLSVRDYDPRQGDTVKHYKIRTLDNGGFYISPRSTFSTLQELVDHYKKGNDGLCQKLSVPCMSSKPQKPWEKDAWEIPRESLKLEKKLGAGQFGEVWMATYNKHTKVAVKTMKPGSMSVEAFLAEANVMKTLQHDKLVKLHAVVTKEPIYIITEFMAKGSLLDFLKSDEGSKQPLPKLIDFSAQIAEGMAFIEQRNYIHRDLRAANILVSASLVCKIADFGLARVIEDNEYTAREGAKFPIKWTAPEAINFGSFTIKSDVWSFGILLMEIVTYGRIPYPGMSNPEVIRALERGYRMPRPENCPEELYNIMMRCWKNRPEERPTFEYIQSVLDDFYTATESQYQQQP

| Compound | IC50 |
| --- | --- |
| CN1CCC(N2CCC(n3cc(-c4ccc(NC(=O)Nc5cc(C(C)(C)C)on5)cc4)c4c(N)ncnc43)CC2)CC1 [Example 151, 1-(4-(4-amino-7-(1′-methyl-[1,4′-bipiperidin]-4-yl)-7H-pyrrolo[2,3-d]pyrimidin-5-yl)phenyl)-3-(5-(tert-butyl)isoxazole-3-yl)urea] | < 50 nM |
| CN1CCC([C@H]2OC[C@@H](n3cc(-c4ccc(Oc5ccccc5)cc4)c4c(N)ncnc43)CO2)CC1 [Example 146, 7-((2s,5s)-2-(1-Methylpiperidin-4-yl)-1,3-dioxan-5-yl)-5-(4-phenoxyphenyl)-7H-pyrrolo[2,3-d]pyrimidin-4-amine] | < 50 nM |
| Nc1ncnc2c1c(-c1ccc(NC(=O)CCc3ccccc3)cc1)cn2C1CCC(C2OCC(N)CO2)CC1 (centres unmarked) [Example 139, N-(4-(4-Amino-7-(4-(5-amino-1,3-dioxan-2-yl)cyclohexyl)-7H-pyrrolo[2,3-d]pyrimidin-5-yl)phenyl)-3-phenylpropanamide] | 50 to 250 nM |
| C[C@@H]1CN([C@H]2CC[C@H](n3cc(-c4ccc(Oc5ccccc5)cc4F)c4c(N)ncnc43)CC2)CCN1 [Example 15, 5-(2-fluoro-4-phenoxyphenyl)-7-((trans)-4-((R)-3-methylpiperazin-1-yl)cyclohexyl)-7H-pyrrolo[2,3-d]pyrimidin-4-amine] | < 50 nM |
| CN1CCN([C@H]2CC[C@H](c3cc(-c4ccc(NC(=O)Nc5cc(C(C)(C)C)on5)cc4)c4c(N)ncnn43)CC2)CC1 [Example 171] | < 50 nM |
| COC(=O)CC1(N)CCC(n2cc(-c3ccc(Oc4ccccc4)cc3)c3c(N)ncnc32)CC1 (centres unmarked) [Example 95, Methyl 2-(1-amino-4-(4-amino-5-(4-phenoxyphenyl)-7H-pyrrolo[2,3-d]pyrimidin-7-yl)cyclohexyl) acetate] | 250 to 10000 nM |
| Nc1ncnc2c1c(-c1ccc(Oc3ccccc3)cc1)cn2[C@H]1CC[C@H](N2CCN(N)CC2)CC1 [Example 38, 7-((trans)-4-(4-aminopiperazin-1-yl)cyclohexyl)-5-(4-phenoxyphenyl)-7H-pyrrolo[2,3-d]pyrimidin-4-amine] | < 50 nM |
| CN1CCCC(N2CCC(n3cc(-c4ccc(Oc5ccccc5)cc4)c4c(N)ncnc43)CC2)C1 (centres unmarked) [Example 160, 7-(1′-methyl-[1,3′-bipiperidin]-4-yl)-5-(4-phenoxyphenyl)-7H-pyrrolo [2,3-d] pyrimidin-4-amine] | 50 to 250 nM |
| CC[C@H]1CN([C@H]2CC[C@H](n3nc(-c4ccc(Oc5ccccc5)cc4F)c4c(N)ncnc43)CC2)CCN1 [Example 31, 1-((trans)-4-((S)-3-ethylpiperazin-1-yl)cyclohexyl)-3-(2-fluoro-4-phenoxyphenyl)-1H-pyrazolo[3,4-d]pyrimidin-4-amine] | < 50 nM |
| COc1cc(-c2cn([C@H]3CO[C@@H](C4CCN(C)CC4)OC3)c3ncnc(N)c23)ccc1Oc1ccccc1 [Example 133, 5-(3-methoxy-4-phenoxyphenyl)-7-((cis)-2-(1-methylpiperidin-4-yl)-1,3-dioxan-5-yl)-7H-pyrrolo[2,3-d]pyrimidin-4-amine] | < 50 nM |
| CC[C@H]1CN([C@H]2CC[C@@H](n3cc(-c4ccc(Oc5ccccc5)cc4)c4c(N)ncnc43)CC2)CCN1 [Example 30, 7-((cis)-4-((S)-3-ethylpiperazin-1-yl)cyclohexyl)-5-(4-phenoxyphenyl)-7H-pyrrolo[2,3-d]pyrimidin-4-amine] | 50 to 250 nM |
| CN1CCN([C@H]2CC[C@H](n3cc(-c4ccc(Oc5cccnn5)cc4)c4c(N)ncnc43)CC2)CC1 [Example 116, 7-((trans)-4-(4-methylpiperazin-1-yl)cyclohexyl)-5-(4-(pyridazin-3-yloxy)phenyl)-7H-pyrrolo[2,3-d]pyrimidin-4-amine] | < 50 nM |
| Nc1ncnc2c1c(-c1ccc(Oc3ccccc3)cc1)cn2[C@H]1CC[C@@H](NC2CNC2)CC1 [Example 84, 7-((cis)-4-(azetidin-3-ylamino)cyclohexyl)-5-(4-phenoxyphenyl)-7H-pyrrolo[2,3-d]pyrimidin-4-amine] | 50 to 250 nM |
| Nc1ncnc2c1c(-c1ccc(Oc3ccccc3)cc1)cn2[C@H]1CC[C@H](N2CCN3CCC[C@H]3C2)CC1 [Example 46, 7-((trans)-4-((S)-hexahydropyrrolo[1,2-a]pyrazin-2(1H)-yl)cyclohexyl)-5-(4-phenoxyphenyl)-7H-pyrrolo[2,3-d]pyrimidin-4-amine] | < 50 nM |
| CN(C)[C@H]1CN([C@H]2CC[C@H](n3cc(-c4ccc(Oc5ccccc5)cc4)c4c(N)ncnc43)CC2)C[C@H]1O [Example 71, (3R,4S)-1-((trans)-4-(4-amino-5-(4-phenoxyphenyl)-7H-pyrrolo[2,3-d]pyrimidin-7-yl)cyclohexyl)-4-(dimethylamino)pyrrolidin-3-ol] | < 50 nM |
| CC1(N)CCN([C@H]2CC[C@@H](n3cc(-c4ccc(Oc5ccccc5)cc4)c4c(N)ncnc43)CC2)CC1 [Example 51, 7-((cis)-4-(4-amino-4-methylpiperidin-1-yl)cyclohexyl)-5-(4-phenoxyphenyl)-7H pyrrolo[2,3-d]pyrimidin-4-amine] | < 50 nM |

| Compound | IC50 |
| --- | --- |
| Nc1ncnc2c1c(-c1ccc(Oc3ccccc3)cc1)cn2C1CCC2(CC1)CCN(CCCCO)CC2 [Example 140, 4-(9-(4-amino-5-(4-phenoxyphenyl)-7H-pyrrolo[2,3-d]pyrimidin-7-yl)-3-azaspiro[5.5]undecan-3-yl)butan-1-ol] | 50 to 250 nM |
| C[C@@H]1CN([C@H]2CC[C@@H](n3cc(-c4ccc(Oc5ccccc5)cc4F)c4c(N)ncnc43)CC2)CCN1 [Example 16, 5-(2-fluoro-4-phenoxyphenyl)-7-((cis)-4-((R)-3-methylpiperazin-1-yl)cyclohexyl)-7H-pyrrolo[2,3-d]pyrimidin-4-amine] | 50 to 250 nM |
| COC(=O)C1CC(N2CCC(n3cc(-c4ccc(Oc5ccccc5)cc4)c4c(N)ncnc43)CC2)CCN1 (centres unmarked) [Example 158, methyl 4-(4-amino-5-(4-phenoxyphenyl)-7H-pyrrolo[2,3-d]pyrimidin-7-yl)-[1,4′-bipiperidine]-2′-carboxylate] | 50 to 250 nM |
| CN(C)[C@@H]1CN([C@H]2CC[C@@H](n3cc(-c4ccc(Oc5ccccc5)cc4F)c4c(N)ncnc43)CC2)C[C@H]1O [Example 74, (3R,4R)-1-((cis)-4-(4-amino-5-(2-fluoro-4-phenoxyphenyl)-7H-pyrrolo[2,3-d]pyrimidin-7-yl)cyclohexyl)-4-(dimethylamino)pyrrolidin-3-ol] | 50 to 250 nM |
| CN1CCN([C@H]2CC[C@H](n3cc(-c4ccc(Cc5ccccc5)cc4)c4c(N)ncnc43)CC2)CC1 [Example 115, 5-(4-benzylphenyl)-7-((trans)-4-(4-methylpiperazin-1-yl)cyclohexyl)-7H-pyrrolo[2,3-d]pyrimidin-4-amine] | < 50 nM |
| Nc1ncnc2c1c(-c1ccc(Oc3ccccc3)cc1)cn2C1CCN(C(CO)CO)CC1 [Example 161, 2-(4-(4-amino-5-(4-phenoxyphenyl)-7H-pyrrolo[2,3-d]pyrimidin-7-yl)piperidin-1-yl)propane-1,3-diol] | < 50 nM |
| Nc1ncnc2c1c(-c1ccc(Oc3ccccc3)cc1)cn2[C@H]1CC[C@@H](N2CCC3(CCNC3)C2)CC1 (relative stereo) [Example 137, 7-((cis)-4-(2,7-diazaspiro[4.4]nonan-2-yl)cyclohexyl)-5-(4-phenoxyphenyl)-7H-pyrrolo[2,3-d]pyrimidin-4-amine] | 50 to 250 nM |
| C[N+]1(C)CCN([C@H]2CC[C@@H](n3nc(-c4ccc(Oc5ccccc5)cc4F)c4c(N)ncnc43)CC2)CC1 [Example 8, 4-((cis)-4-(4-amino-3-(2-fluoro-4-phenoxyphenyl)-1H-pyrazolo[3,4-d]pyrimidin-1-yl)cyclohexyl)-1,1-dimethylpiperazin-1-ium] | 50 to 250 nM |
| Nc1ncnc2c1c(-c1ccc(Oc3ccccc3)cc1)nn2[C@H]1CC[C@H](n2cc(CO)cn2)CC1 [Example 138, (1-((trans)-4-(4-Amino-3-(4-phenoxyphenyl)-1H-pyrazolo[3,4-d]pyrimidin-1-yl)cyclohexyl)-1H-pyrazol-4-yl)methanol] | < 50 nM |
| C[N+]1(C)CCN([C@H]2CC[C@H](n3nc(-c4ccc(Oc5ccccc5)cc4F)c4c(N)ncnc43)CC2)CC1 [Example 7, 4-((trans)-4-(4-amino-3-(2-fluoro-4-phenoxyphenyl)-1H-pyrazolo[3,4-d]pyrimidin-1-yl)cyclohexyl)-1,1-dimethylpiperazin-1-ium] | < 50 nM |
| C[C@H]1CN([C@H]2CC[C@@H](c3cc(-c4ccc(Oc5ccccc5)cc4)c4c(N)ncnn43)CC2)CCN1 [Example 170, 7-((cis)-4-((S)-3-Methylpiperazin-1-yl)cyclohexyl)-5-(4-phenoxyphenyl)pyrrolo[2,1-f][1,2,4]triazin-4-amine] | 50 to 250 nM |
| Nc1ncnc2c1c(-c1ccc(Oc3ccccc3)cc1)cn2[C@H]1CC[C@@H](N2CCC(S(N)(=O)=O)CC2)CC1 [Example 70, 1-((cis)-4-(4-amino-5-(4-phenoxyphenyl)-7H-pyrrolo[2,3-d]pyrimidin-7-yl)cyclohexyl)piperidine-4-sulfonamide] | 50 to 250 nM |
| CN1CCOC(C2CCC(n3cc(-c4ccc(Oc5ccccc5)cc4)c4c(N)ncnc43)CC2)C1 (centres unmarked) [Example 144, 7-(4-(4-Methylmorpholin-2-yl)cyclohexyl)-5-(4-phenoxyphenyl)-7H-pyrrolo[2,3-d]pyrimidin-4-amine] | < 50 nM |
| CN1CCN([C@H]2CC[C@H](n3cc(-c4ccc(Oc5ccccc5)cc4Cl)c4c(N)ncnc43)CC2)CC1 [Example 106, 5-(2-chloro-4-phenoxyphenyl)-7-((trans)-4-(4-methylpiperazin-1-yl)cyclohexyl)-7H-pyrrolo[2,3-d]pyrimidin-4-amine] | < 50 nM |
| CN[C@@H]1CCCN([C@H]2CC[C@@H](n3cc(-c4ccc(Oc5ccccc5)cc4)c4c(N)ncnc43)CC2)C1 [Example 61, 7-((cis)-4-((R)-3-(methylamino)piperidin-1-yl)cyclohexyl)-5-(4-phenoxyphenyl)-7H-pyrrolo[2,3-d]pyrimidin-4-amine] | < 50 nM |
| NC(=O)CC1(N)CCC(n2cc(-c3ccc(Oc4ccccc4)cc3)c3c(N)ncnc32)CC1 (centres unmarked) [Example 96, 2-(1-Amino-4-(4-amino-5-(4-phenoxyphenyl)-7H-pyrrolo[2,3-d]pyrimidin-7-yl)cyclohexyl)acetamide] | < 50 nM |
